“And” between values parts separate entries of the source, which are not always exact repeats. Equal entries are not always repeated. Where two headings read alike, the source gives them in different places.
Legend:
OATP1B1 [1] = biological target: T1, OATP1B1 (Homo sapiens, UniProt Q9Y6L6); conditions: read-out: Apparent Km of transport by OATP1B1; cited from earlier work
T1 sequence (Q9Y6L6 1-691): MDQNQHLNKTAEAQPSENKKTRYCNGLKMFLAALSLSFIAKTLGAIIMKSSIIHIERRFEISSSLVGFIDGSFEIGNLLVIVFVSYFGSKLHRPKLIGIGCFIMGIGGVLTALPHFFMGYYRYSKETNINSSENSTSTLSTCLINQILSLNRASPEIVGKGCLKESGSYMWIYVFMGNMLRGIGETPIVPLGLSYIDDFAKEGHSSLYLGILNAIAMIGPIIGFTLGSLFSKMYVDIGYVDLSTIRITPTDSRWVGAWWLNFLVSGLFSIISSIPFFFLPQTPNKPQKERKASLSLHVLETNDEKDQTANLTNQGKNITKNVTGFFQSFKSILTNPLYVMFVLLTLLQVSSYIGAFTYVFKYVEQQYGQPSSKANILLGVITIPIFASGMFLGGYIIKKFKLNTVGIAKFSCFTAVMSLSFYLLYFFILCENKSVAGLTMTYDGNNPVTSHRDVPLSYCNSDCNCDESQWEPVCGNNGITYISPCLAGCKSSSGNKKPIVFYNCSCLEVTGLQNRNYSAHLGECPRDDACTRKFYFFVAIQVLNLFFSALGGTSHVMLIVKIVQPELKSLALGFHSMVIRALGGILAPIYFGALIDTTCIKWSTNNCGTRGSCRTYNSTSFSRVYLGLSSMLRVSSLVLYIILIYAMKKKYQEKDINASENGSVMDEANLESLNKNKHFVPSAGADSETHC

[2] = cited from earlier work
Caco-2 cell monolayers = conditions: cited from earlier work; for Reference Papp,caco-2 (7.4:7.4): ref Simcyp library value
P-gp = conditions: cited from earlier work
OATP1B1 [3] = biological target: T1, OATP1B1; test: Inhibition of OATP1B1-mediated [3H]-E217βG accumulation in HEK293-OATP1B1 cells; assay type: cell-based
[4] = Vemurafenib PBPK model parameters; parameters: species or system human
Estimation of Iin,max = test: Estimation of Iin,max; parameters: species or system human; conditions: 960 mg; faFg = 1; Eq. 4
OATP1B3 [5] = biological target: T2, OATP1B3 (Homo sapiens, UniProt Q9NPD5); test: Inhibition of OATP1B3-mediated [3H]-CCK-8 accumulation in HEK293-OATP1B3 cells; assay type: cell-based
T2 sequence (Q9NPD5 1-702): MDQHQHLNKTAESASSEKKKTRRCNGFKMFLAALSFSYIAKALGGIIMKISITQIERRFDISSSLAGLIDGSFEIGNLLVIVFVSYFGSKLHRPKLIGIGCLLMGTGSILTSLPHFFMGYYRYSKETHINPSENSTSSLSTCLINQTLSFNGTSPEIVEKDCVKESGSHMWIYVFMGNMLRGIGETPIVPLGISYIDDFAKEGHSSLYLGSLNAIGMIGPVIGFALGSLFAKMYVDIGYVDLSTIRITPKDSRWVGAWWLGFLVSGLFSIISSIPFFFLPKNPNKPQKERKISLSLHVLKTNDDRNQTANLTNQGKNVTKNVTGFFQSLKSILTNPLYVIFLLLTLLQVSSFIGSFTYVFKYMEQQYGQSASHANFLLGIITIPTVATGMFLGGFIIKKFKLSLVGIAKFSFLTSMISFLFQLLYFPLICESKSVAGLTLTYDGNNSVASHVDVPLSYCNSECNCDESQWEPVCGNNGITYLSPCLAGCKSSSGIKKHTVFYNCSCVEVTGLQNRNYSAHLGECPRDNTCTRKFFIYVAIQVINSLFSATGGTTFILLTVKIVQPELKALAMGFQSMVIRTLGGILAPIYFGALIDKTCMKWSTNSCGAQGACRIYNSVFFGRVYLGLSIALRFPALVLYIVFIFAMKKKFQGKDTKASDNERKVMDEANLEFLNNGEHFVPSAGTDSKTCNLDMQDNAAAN

[6] = cited from earlier work; remark: listed apart in the source
OATP1B3 [7] = biological target: T2, OATP1B3; conditions: cited from earlier work
OATP1B1 [8] = biological target: T1, OATP1B1; conditions: 10 μM vemurafenib, aqueous buffer; cited from earlier work
[9] = cited from earlier work; for Aqueous solubility: highest/maximum aqueous solubility
[10] = IC50,total against OATP1B1, 100% human plasma (pH 7.4), [3H]-E217βG 5 μM, 3 min, HEK293-OATP1B1
[11] = vemurafenib 150 μM in human plasma

In the case of `C[C@]12CC[C@@H]3c4ccc(O)cc4CC[C@H]3[C@@H]1CC[C@@H]2O[C@@H]1O[C@H](C(=O)O)[C@@H](O)[C@H](O)[C@H]1O` [E217βG, estradiol 17 β-D-glucuronide], the Km (OATP1B1 [1]) is listed as about 8.3 µM and the “fu (reported protein binding)” value [2] is listed as 0.39.

In the case of `CN/C(=N/CCSCc1nc[nH]c1C)NC#N` [cimetidine], the “Reference Papp,caco-2 (7.4:7.4)” value (Caco-2 cell monolayers) is listed as 4 10^−6 cm/s.

In the case of `C[C@H]1O[C@@H](O[C@H]2[C@@H](O)C[C@H](O[C@H]3[C@@H](O)C[C@H](O[C@H]4CC[C@@]5(C)[C@H](CC[C@@H]6[C@@H]5C[C@@H](O)[C@]5(C)[C@@H](C7=CC(=O)OC7)CC[C@]65O)C4)O[C@@H]3C)O[C@@H]2C)C[C@H](O)[C@@H]1O` [digoxin], the Mean terminal half-life (P-gp; single dose of digoxin alone) is given as 35.0 h and the Mean terminal half-life (P-gp; single dose of digoxin co-administered with vemurafenib) is given as 56.4 h.

For `CNC(=C[N+](=O)[O-])NCCSCc1ccc(CN(C)C)o1` [ranitidine], the “Reference Papp,caco-2 (7.4:7.4)” value (Caco-2 cell monolayers) is listed as 1.2 10^−6 cm/s.

`CO[C@H]1/C=C/O[C@@]2(C)Oc3c(C)c(O)c4c(O)c(c(/C=N/N5CCN(C)CC5)c(O)c4c3C2=O)NC(=O)/C(C)=C\C=C\[C@H](C)[C@H](O)[C@@H](C)[C@@H](O)[C@@H](C)[C@H](OC(C)=O)[C@@H]1C` [rifampicin] gave an IC50 (OATP1B1 [3]; [10]) of 2.1 µM and an IC50 (OATP1B1 [3]; read-out: Estimated IC50,unbound,OATP1B1, IC50,total 2.1 μM × fu,plasma 0.116) of 0.24 µM.

In the case of `CCCS(=O)(=O)Nc1ccc(F)c(C(=O)c2c[nH]c3ncc(-c4ccc(Cl)cc4)cc23)c1F` [vemurafenib], the Vd ([4]; human, oral, 960 mg) is given as 0.9 L/kg, the “CLR (renal clearance)” value ([4]; set from 0.97% of oral dose recovered in urine as parent) is given as 0.01787 L/h and the “Passive permeability coefficient in Caco-2 cell monolayers” value (Caco-2 cell monolayers; ranitidine as reference compound) is given as 2.9 10^−6 cm/s. The “Blood-to-plasma ratio (RB)” value ([2]; [14C]-vemurafenib) was 0.58, the “Protein bound in human plasma” value [2] was over 99% and the “Unbound fraction in human plasma” value ([2]; independent of concentration 0.5–100 μM) was 0.0014. For the same compound, the “Iin,max (estimated total maximum plasma concentration at the inlet to the liver)” value (Estimation of Iin,max) was 132 µM and 132.5 µM, the IC50 (OATP1B3 [5]; IC50,total against OATP1B3, 100% human plasma (pH 7.4), [3H]-CCK-8 1 μM, 3 min, HEK293-OATP1B3) was 231 µM and the IC50 at 3 min (OATP1B3 [5]; human, HEK293 cells over-expressing OATP1B3 (HEK293-OATP1B3), pH 7.4, probe [3H]-CCK-8 (1 μM), IC50,total against OATP1B3, 100% human plasma (pH 7.4), [3H]-CCK-8 1 μM, 3 min, HEK293-OATP1B3) was 232 ± 26 µM. The “Effect on OATP1B3-mediated transport vs vehicle control” value (OATP1B3 [5]; vemurafenib 0.78 μM in HBSS buffer (pH 7.4), protein-free, CCK-8 1 μM, 3 min) was “does not affect”, the OATP1B3-mediated transport remaining (OATP1B3 [5]; [11]) was 72.1 % of control and the “OATP1B3-mediated [3H]-CCK-8 transport” value (OATP1B3 [5]; vemurafenib 500 μM in 100% human plasma, CCK-8 1 μM, 3 min) was 0.13 ± 0.04 fold of control. For the same compound, the “Time to steady state” value ([6]; 960 mg BID multiple dosing) was 15 to 21 days, the “AUC0–8 h accumulation, day 15 vs day 1” value ([6]; 960 mg BID) was 23.2 ± 16.5 fold and the CLpo [6] was 2.67 (53.5) L/h, CV%. The Median accumulation ratio [6] was 7.36, the “Oral dose recovered in urine as parent” value [6] was 0.97% and the “Time to steady state for most patients” value [6] was at most 22 days. The “ka, absorption rate constant” value ([6]; oral, population pharmacokinetic analysis) was 0.19 h⁻¹, the “Uptake in OATP1B3-overexpressing cells vs vehicle control cells” value (OATP1B3 [7]) was ~ 1.5 fold and the IC50 (OATP1B1 [3]; [10]) was 175 µM. For the same compound, the “Effect on OATP1B1-mediated transport vs vehicle control” value (OATP1B1 [3]; vemurafenib 0.78 μM in HBSS buffer (pH 7.4), protein-free, E217βG […], 2 min) was “does not affect”, the OATP1B1-mediated transport remaining (OATP1B1 [3]; [11]) was 60.2 % of control and the “OATP1B1-mediated [3H]-E217βG transport” value (OATP1B1 [3]; vemurafenib 500 μM in 100% human plasma, E217βG 5 μM, 3 min) was 0.38 ± 0.1 fold of control. For the same compound, the “Decrease of OATP1B1-mediated [3H]-E217βG transport” value (OATP1B1 [8]) was ~ 75% and 75%, the “pKa (first)” value ([9]; diprotic acid) was 7.9 and the “pKa (second)” value ([9]; diprotic acid) was 11.1. For the same compound, the Aqueous solubility [9] was 0.78 µM, the Aqueous solubility ([9]; listed as Vemurafenib) was ~ 0.78 μM and the “Log PO:W” value ([9]; neutral species octanol:buffer partition coefficient) was 3.

For Cholecystokinin 8 [CCK-8], the Km (OATP1B3 [7]) is listed as about 3.8 µM.
